Laboratory results taken from publication PMC7702302, “Fragment-derived modulators of an industrial β-glucosidase” (Biochemical Journal, 2020).
Values joined by “and” are separate entries in the source; they are usually repeats but may differ in a detail not shown here. Identical values can stand only once. Like-named read-outs stand apart in the source and are kept apart here.

Assays:
TrBgl2 [1] = target: T1, TrBgl2 (Trichoderma reesei, UniProt O93785); experiment: MUG cleavage fluorescent kinetic assay (AC50 / Amax / IC50); type: biochemical
T1 sequence (O93785 entry or part of it): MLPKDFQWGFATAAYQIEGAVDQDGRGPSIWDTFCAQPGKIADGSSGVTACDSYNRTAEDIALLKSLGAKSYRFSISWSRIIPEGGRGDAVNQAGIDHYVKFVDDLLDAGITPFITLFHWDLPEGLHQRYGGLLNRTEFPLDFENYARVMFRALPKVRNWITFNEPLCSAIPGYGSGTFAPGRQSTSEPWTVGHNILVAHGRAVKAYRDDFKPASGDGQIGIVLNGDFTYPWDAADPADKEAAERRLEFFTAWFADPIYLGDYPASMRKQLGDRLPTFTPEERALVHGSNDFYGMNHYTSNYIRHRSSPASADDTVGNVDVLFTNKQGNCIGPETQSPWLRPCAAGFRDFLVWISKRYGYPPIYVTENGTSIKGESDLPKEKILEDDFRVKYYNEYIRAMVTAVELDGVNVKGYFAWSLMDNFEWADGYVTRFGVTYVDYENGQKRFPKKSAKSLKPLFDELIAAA
Description: A fluorescent kinetic assay was performed for library screening of TrBgl2 using 500 µM 4-methylumbelliferyl-β-D-glucopyranoside (MUG) in a total volume of 150 µL per well. Compounds dissolved in DMSO were added to each well to yield a final concentration from 1 to 2 mM. The reactions were performed in 160 mM phosphate–citrate buffer in pH 6.0, initiated by adding 20 µL of the enzyme to give a final concentration of 100 nM and were assayed at 40°C. The fluorescent 4-methylumbelliferyl release was recorded continuously at 355 nm excitation and 460 nm emission for 20 s using a BMG Labtech POLARstar OPTIMA plate reader. Control experiments were performed to evaluate the possibility of interference from the intrinsic fluorescence of compounds in the library by repeating the assay in the absence of the enzyme.
(§1) Assays were carried out in a 96 well plate (Black Nunc F96 MicroWell Plates) at 40 and 45°C for TrBgl2 and CcBglA, respectively, in 160 mM phosphate–citrate buffer in pH 6.0 and 2.5% DMSO. Reactions were initiated by the addition of 20 µL of protein to a final concentration of 100 nM, followed by 5 s of shaking. The fluorescent 4-methylumbelliferyl release was recorded continuously at 355 nm excitation and 460 nm emission for 20 s using a BMG Labtech POLARstar OPTIMA plate reader. Rates were calculated using GraphPad Prism 5.0 as the slope of the curve of the collected data. Corrections were made to the detected gradients to adjust for the inner filter effect of MUG and convert the gradients into units of µmol min^−1 according to a standard curve for MUG. The initial slopes were fitted to sigmoidal dose-response curves using GraphPad Prism 5.0 and the AC50 values extracted. Inhibition of TrBgl2 by isofagomine (IC50) was determined in similar manner to the AC50 values.

TrBgl2 [2] = target: T1, TrBgl2; experiment: Michaelis-Menten and covariation kinetics with MUG; type: biochemical
Description: Apparent KM and kcat values were calculated from a Michaelis–Menten curve fit to 9-point substrate titrations at a constant concentration of compounds. The covariation experiments used the same range of substrate concentrations across an activator and inhibitor concentration range. The data obtained from these experiments was fit to the nonessential activator and mixed-model inhibition equation, respectively.

TrBgl2 [3] = target: T1, TrBgl2; experiment: STD NMR ligand-observed binding; conditions: compound 500 µM, TrBgl2 20 µM; for binding to TrBgl2 by STD NMR: absence of isofagomine; for binding to TrBgl2 by STD NMR in presence of isofagomine: isofagomine 40 µM
Description: The samples contained 20 µM unlabelled TrBgl2, fragments at a concentration of 500 µM per compound and 100 µM sodium trimethylsilylpropanesulfonate (DSS) in 50 mM phosphate buffer containing 25 mM NaCl and 5% D2O at pH 6.0. The experiments were recorded by using a Bruker standard pulse sequence (stddiffesgp.3 [19]). The on-resonance frequency was set to 0.25 ppm and off-resonance irradiation was applied at 40 ppm. STD NMR spectra were collected with a total of 16 scans (NS), 5 s delay between the scans (d1), a saturation time of 4 s (d20) and 1.5 s acquisition time (AQ).

E367Q TrBgl2 = experiment: Thermal shift assay (TSA); type: binding, Trichoderma reesei
Description: Thermal shift screens were performed in 96-well polypropylene PCR plates (Agilent 401334) with a final volume 25 µL/well. […] Melting data were collected using an Agilent Stratagene Mx3005P rtPCR machine ramping from 25 to 95°C at 30 s per degree. Data were analysed with a combination of the Agilent MxPro software, MTS [16], JTSA (http://paulsbond.co.uk/jtsa) and the DSF analysis spreadsheet in Excel.

Solubility of compound = type: physicochemical
TrBgl2 [4] = target: T1, TrBgl2; experiment: Protein-observed NMR chemical shift perturbation (1H-15N TROSY); type: binding; conditions: compound 8 mM (8 also 16 mM), 15N TrBgl2 120 µM
Description: For backbone chemical shift perturbations (CSPs), each sample was prepared with 120 µM ^15N isotope-labelled TrBgl2 or E367Q TrBgl2, 8 mM or 16 mM of compound 8 or 10, 5 mM of MUG substrate and 100 µM DSS in 50 mM TRIS buffer containing 100 mM NaCl and 10% D2O at pH 8.0. The final DMSO concentration was usually not above 3.8%(v/v). ^1H-^15N TROSY spectra of the enzyme with DMSO in the buffer were collected as controls. ^1H-^15N TROSY spectra were collected by using a Bruker standard pulse sequence (trosyetf3gpsi) with 128 scans (NS), 1.5 s delay between the scans (d1), 35 ppm spectra width (SW), 256-time domain data size (TD) and 117 ppm irradiation carrier frequency offset (O1P).
For IVL methyl group CSPs, each sample was prepared with 250 µM of ^15N, ^13C, ^2H and IVL methyl group specifically labelled TrBgl2, 8 mM of compound 8, in 50 mM TRIS buffer containing 100 mM NaCl and 10% D2O at pH 8.0. The final DMSO concentration was usually not above 3.8% (v/v). ^1H-^13C HSQC spectra of the enzyme with DMSO in the buffer were collected as controls. ^1H-^13C HSQC spectra were recorded by using a Bruker standard pulse sequence (hsqcctetgpsp) with 8 scans (NS), 1.5 s delay between the scans (d1), 30 ppm spectra width (SW), 256-time domain data size (TD) and 15 ppm irradiation carrier frequency offset (O1P).

CcBglA = experiment: MUG cleavage assay on CcBglA (selectivity); type: biochemical, Clostridium cellulovorans; conditions: MUG 500 µM, titration 63 µM to 8 mM
Description: as §1

[5] = pH 6, titration of compound from 30 µM to 3.8 mM, substrate conc. 500 µM, read-out: Amax
[6] = titration of compound from 30 µM to 3.8 mM, substrate conc. 500 µM
[7] = pH 6, titration of compound from 63 µM to 8 mM, substrate conc. 500 µM, read-out: Amax
[8] = titration of compound from 63 µM to 8 mM, substrate conc. 500 µM
[9] = E367Q TrBgl2 in the presence of MUG (4 mM), compound 4 mM
[10] = apo E367Q TrBgl2, compound 4 mM, without MUG

Row | Structure (SMILES) | binding to TrBgl2 by STD NMR (TrBgl2 [3]) | binding to TrBgl2 by STD NMR in presence of isofagomine (TrBgl2 [3]) | Emax (TrBgl2 [1]; [5]) | AC50 (TrBgl2 [1]; [6]) | Emax (TrBgl2 [1]; [7]) | AC50 (TrBgl2 [1]; [8]) | also measured
1 | Cc1cccc(C)c1NC(=S)N1CCOCC1 [Compound 1] | showed evidence of binding | binding was also observed | – | – | – | – | AC50 (TrBgl2 [1]; MUG substrate 500 μM): 1000 µM and ~1000 µM; Emax (TrBgl2 [1]; MUG substrate 500 μM, read-out: Amax (maximal activation obtained)): ~155%; improvement in kcat/KM (TrBgl2 [2]; Michaelis-Menten analysis, MUG, in presence of 1 (3 mM) vs absence): approximately 2 fold
2 | S=C(Nc1ccccc1Cl)N1CCOCC1 [Compound 3] | – | – | 155% | > 4000 µM | – | – | –
3 | Cc1ccccc1NC(=S)N1CCOCC1 [Compound 4] | – | – | 139% | 1810 ± 96 µM | – | – | –
4 | Cc1ccc(C)c(NC(=S)N2CCOCC2)c1 [Compound 5] | – | – | 160% | > 4000 µM | – | – | –
5 | COc1ccccc1NC(=S)N1CCOCC1 [Compound 6] | – | – | – | – | 143% | > 4000 µM | –
6 | Cc1cccc(C)c1NC(=S)N1CCCCC1CO (centres unmarked) [Compound 7] | – | – | – | – | 161% | 1530 ± 312 µM | –
7 | CCN(CCO)C(=S)Nc1c(C)cccc1C [Compound 8] | clear signal intensity | clear signal intensity | – | – | ≤ 188% | > 4000 µM | α modifier (nonessential activator model) (TrBgl2 [2]; covariation fit, MUG substrate): 0.64; β modifier (nonessential activator model, modifies kcat) (TrBgl2 [2]; covariation fit, MUG substrate): 1.5; enhancement of substrate affinity (TrBgl2 [2]; in the presence of activator): approximately 1.5 fold; increase of Tm (E367Q TrBgl2; [9]): ~1.2 °C; decrease of Tm (E367Q TrBgl2; [10]): ~1 °C; solubility (Solubility of compound): ≤ 16 mM; amide chemical shift changes on addition of compound (1H-15N TROSY) (TrBgl2 [4]): indicating a specific binding event
8 | Cc1cccc(C)c1NC(=S)NCCO [Compound 9] | – | – | 128% | > 4000 µM | – | – | –
9 | S=C(Nc1ccc2nccnc2c1)N1CCOCC1 [Compound 10] | clear signal intensity | clear signal intensity | – | – | – | – | IC50 (TrBgl2 [1]; [8]): 312 ± 32 µM; inhibition (TrBgl2 [1]; titration of compound from 63 µM to 8 mM, substrate conc. 500 µM, read-out: Maximum inhibition): 96%; α modifier (reversible mixed inhibition model) (TrBgl2 [2]; covariation fit, MUG substrate): 3.65; decrease of Tm (E367Q TrBgl2; [9]): ~4 °C; decrease of Tm (E367Q TrBgl2; [10]): ~4 °C; inhibition of CcBglA (CcBglA): inhibited both enzymes to a similar degree; amide chemical shift changes on addition of compound (1H-15N TROSY) (TrBgl2 [4]): smaller but similar changes as seen for 8
10 | OC[C@H]1CNC[C@@H](O)[C@@H]1O [isofagomine, reference compound] | – | – | – | – | – | – | IC50 (TrBgl2 [1]; inhibition of TrBgl2, MUG substrate): 0.53 ± 0.12 µM
